Results on 24 compounds are retold here after US20240124408A1 (Sanofi, priority 2020, published 2024).

What all share (type): cell-based
For assay [1], the target named is T1, human TRPM8 (Homo sapiens, UniProt Q7Z2W7).
T1 construct: expressed in transfected cells; host or cells: CHO (p658 mammalian expression vector)
The experiment in a line: In vitro human TRPM8 automated patch-clamp assay (SyncroPatch 384PE, CHO cells). Conditions: CHO cells expressing human TRPM8, 28° C. How it is done: (§1) In Vitro Pig and Human TRPM8 Automated Patch-Clamp Assays
(§2) Automated whole-cell recordings of compound effects were performed on the SyncroPatch 384PE (Nanion Technologies, Munich, Germany) incorporated into a Biomek FX pipetting robot (Beckman Coulter, Jersey City, NJ, USA) using the same engineered CHO cell lines expressing human or pig TRPM8 channels. Data acquisition and analysis were performed with the proprietary software PatchControl 384 and DataControl 384, respectively (Nanion Technologies, Munich, Germany). All recordings were carried out using planar borosilicate glass patch clamp chips in a 384-microtiter plate format with patch hole resistances of 2-4 MO. For recordings, standard intracellular solution was used containing (in mM): 130 KF, 4 NaCl, 1 MgCl2, 0.5 CaCl2, 10 HEPES and 10 EGTA/KOH (pH 7.2) and standard extracellular solution contained in mM: 150 NaCl, 4 KCl, 0.5 CaCl2, 1 MgCl2 and 10 HEPES (pH 7.3).
(§3) Prior to the electrophysiological measurements, cells were harvested using Accutase (GIBCO, Fisher Scientific) and resuspended in warmed extracellular solution. The cell suspension was kept in the dedicated cell reservoir at 28° C. at a 1 million/ml cell density and shaken at 500 rounds per min (rpm). Experiments were performed at 28° C. throughout. Cells were distributed in high resistance 4-holes-per-well Nanion chips where they were caught on the patch holes by application of a −80 mbar pressure. The cell membrane was ruptured to obtain the whole-cell configuration with a pressure pulse of −250 mbar for 2 seconds. Voltage protocols were constructed using PatchControl 384. The cells were held at a holding potential of −60 mV and TRPM8 currents were recorded using a ramp protocol from −80 to +80 mV every 5 seconds before and after compound addition. Resulting currents were recorded at both −80 and +80 mV and current kinetics were exported and analyzed. From each plate, control wells with 200 μM menthol were recorded to validate the assay. One concentration of compound was applied to each of the other wells. For each concentration, compound response was determined by subtracting the baseline current recorded before compound addition from the maximum peak elicited currents obtained after compound addition. Then, each compound response was normalized to control condition without compound and maximum current (Emax) obtained for each compound. Nanion DataControl 384 software plotted current response for each compound concentration and was able to calculate an EC50 value for each active compound.

Assay [2] deals with T2, pig TRPM8 (Sus scrofa, UniProt F1SM15).
T2 construct: expressed in transfected cells; host or cells: CHO (pcDNA5/FRT/TO vector; hygromycin B and blasticidin selection)
The assay can be described thus: In vitro pig TRPM8 fluorescence calcium flux assay (recombinant CHO cells, Fluo4-AM, FDSS6000). As to conditions: recombinant CHO cells expressing pig TRPM8; menthol-related EC50, normalized to 100 μM menthol. Put shortly: (§4)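 CHO cells stably expressing pig or human TRPM8, loaded with 2 μM Fluo4-AM in HBSS/20 mM HEPES/0.1% BSA/2.5 mM probenecid for 1 h at RT. Intracellular calcium read kinetically for 3 min after compound addition. EC50 from sixteen-point curves, normalized to 100 μM menthol maximal response.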

The target of assay [3] is T1, human TRPM8. The assay can be described thus: In vitro human TRPM8 fluorescence calcium flux assay (recombinant CHO cells, Fluo4-AM, FDSS6000). As to conditions: recombinant CHO cells expressing human TRPM8; menthol-related EC50, normalized to 100 μM menthol. Put shortly: as §4
The target in assay [4] is T2, pig TRPM8. The assay can be described thus: In vitro pig TRPM8 automated patch-clamp assay (SyncroPatch 384PE, CHO cells). As to conditions: CHO cells expressing pig TRPM8, 28° C. How it is done:
as §1, §2, §3

Some results are limits rather than exact numbers.

T2 sequence (F1SM15 1-1104): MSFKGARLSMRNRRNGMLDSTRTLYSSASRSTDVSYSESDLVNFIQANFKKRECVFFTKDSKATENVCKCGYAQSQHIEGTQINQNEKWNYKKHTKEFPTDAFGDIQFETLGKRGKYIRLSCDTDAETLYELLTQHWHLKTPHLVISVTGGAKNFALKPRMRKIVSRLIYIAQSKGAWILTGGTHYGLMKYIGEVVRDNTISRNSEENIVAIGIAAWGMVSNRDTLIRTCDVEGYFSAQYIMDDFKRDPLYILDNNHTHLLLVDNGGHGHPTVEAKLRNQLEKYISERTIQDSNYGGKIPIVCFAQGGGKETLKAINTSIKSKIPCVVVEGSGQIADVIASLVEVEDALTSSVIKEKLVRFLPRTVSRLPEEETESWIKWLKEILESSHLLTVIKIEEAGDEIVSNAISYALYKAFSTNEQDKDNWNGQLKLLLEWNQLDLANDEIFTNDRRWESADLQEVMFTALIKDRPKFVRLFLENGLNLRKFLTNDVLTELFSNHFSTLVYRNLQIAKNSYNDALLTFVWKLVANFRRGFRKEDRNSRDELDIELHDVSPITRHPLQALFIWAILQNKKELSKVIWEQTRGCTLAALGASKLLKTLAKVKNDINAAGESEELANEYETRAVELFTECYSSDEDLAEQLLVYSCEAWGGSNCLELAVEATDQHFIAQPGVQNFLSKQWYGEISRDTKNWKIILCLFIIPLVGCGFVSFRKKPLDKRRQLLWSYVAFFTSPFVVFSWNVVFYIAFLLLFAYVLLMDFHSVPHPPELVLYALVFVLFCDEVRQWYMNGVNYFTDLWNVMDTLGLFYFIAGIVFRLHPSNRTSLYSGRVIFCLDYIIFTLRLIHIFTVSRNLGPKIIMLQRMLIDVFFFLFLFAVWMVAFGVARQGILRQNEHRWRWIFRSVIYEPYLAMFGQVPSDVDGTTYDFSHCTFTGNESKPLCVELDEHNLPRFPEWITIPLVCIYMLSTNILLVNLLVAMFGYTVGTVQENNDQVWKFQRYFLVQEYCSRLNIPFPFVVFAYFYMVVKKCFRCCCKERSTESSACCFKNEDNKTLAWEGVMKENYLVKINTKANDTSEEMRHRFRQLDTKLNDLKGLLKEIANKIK
T1 sequence (Q7Z2W7 whole entry): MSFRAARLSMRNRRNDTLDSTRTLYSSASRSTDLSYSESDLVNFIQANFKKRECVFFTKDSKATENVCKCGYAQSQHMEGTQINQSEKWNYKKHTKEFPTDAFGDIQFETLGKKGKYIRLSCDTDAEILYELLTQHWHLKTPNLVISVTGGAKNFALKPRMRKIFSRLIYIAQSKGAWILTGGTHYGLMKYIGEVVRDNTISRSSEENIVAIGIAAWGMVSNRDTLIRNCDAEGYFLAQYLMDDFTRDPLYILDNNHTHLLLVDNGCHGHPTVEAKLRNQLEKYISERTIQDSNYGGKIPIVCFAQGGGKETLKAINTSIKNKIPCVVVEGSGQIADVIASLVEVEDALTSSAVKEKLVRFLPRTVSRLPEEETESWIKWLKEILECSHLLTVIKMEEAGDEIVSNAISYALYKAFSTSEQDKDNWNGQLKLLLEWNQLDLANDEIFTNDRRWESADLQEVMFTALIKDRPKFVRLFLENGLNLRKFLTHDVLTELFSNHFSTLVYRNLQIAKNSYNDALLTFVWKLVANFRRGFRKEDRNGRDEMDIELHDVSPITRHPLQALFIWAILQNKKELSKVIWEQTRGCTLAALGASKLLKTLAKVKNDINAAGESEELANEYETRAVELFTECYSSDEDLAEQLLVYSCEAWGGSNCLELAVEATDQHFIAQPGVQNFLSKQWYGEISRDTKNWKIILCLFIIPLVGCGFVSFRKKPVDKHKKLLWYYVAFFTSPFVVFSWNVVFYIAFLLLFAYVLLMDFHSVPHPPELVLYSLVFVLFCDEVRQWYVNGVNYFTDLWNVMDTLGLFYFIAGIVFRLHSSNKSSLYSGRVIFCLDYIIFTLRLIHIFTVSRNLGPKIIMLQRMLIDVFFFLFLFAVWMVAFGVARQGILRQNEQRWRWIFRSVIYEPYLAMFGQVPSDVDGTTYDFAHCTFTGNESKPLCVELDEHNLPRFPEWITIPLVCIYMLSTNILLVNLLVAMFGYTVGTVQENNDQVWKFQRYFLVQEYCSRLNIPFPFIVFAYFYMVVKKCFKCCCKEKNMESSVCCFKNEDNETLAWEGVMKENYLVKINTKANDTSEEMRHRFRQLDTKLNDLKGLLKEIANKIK

As to `CC(C)[C@@H]1CC[C@@H](C)C[C@@]1(O)C(=O)NCC1(O)CCc2ccccc21` (stereo partly drawn) [Example 23, (1S,2S,5R)-1-hydroxy-N-((1-hydroxy-2,3-dihydro-1H-inden-1-yl)methyl)-2-isopropyl-5-methylcyclohexane-1-carboxamide], the EC50 in assay [1] was 500 nM; in assay [2], 6 nM; in assay [3] it was 7 nM; in assay [4], 1070 nM.
With `COc1ccc(NC(=O)[C@]2(O)C[C@H](C)CC[C@H]2C(C)C)cc1` [Example 174, (1S,2S,5R)-1-hydroxy-N-(4-methoxyphenyl)-5-methyl-2-propan-2-ylcyclohexane-1-carboxamide], the EC50 in assay [2] turned out to be 33.4 nM; in assay [3] it was 119 nM; in assay [4], 2170 nM.
For the compound `CC(C)[C@@H]1CC[C@@H](C)C[C@@]1(O)C(=O)NCC(=O)NCc1ccccc1` [Example 30, (1S,2S,5R)—N-(2-(benzylamino)-2-oxoethyl)-1-hydroxy-2-isopropyl-5-methylcyclohexane-1-carboxamide], the EC50 in assay [2] is 766 nM; in assay [3], 3250 nM; in assay [4], more than 10000 nM.
Regarding `CC(C)[C@@H]1CC[C@@H](C)C[C@@]1(O)C(=O)NCC1COc2ccccc21` (stereo partly drawn) [Example 162, (1S,2S,5R)-N-(2,3-dihydrobenzofuran-3-ylmethyl)-1-hydroxy-2-isopropyl-5-methyl-cyclohexanecarboxamide], the EC50 amounted to 4 nM in assay [2], 5.3 nM in assay [3] and 1400 nM in assay [4].
In the case of `CC(C)[C@@H]1CC[C@@H](C)C[C@@]1(O)C(=O)NCCO` [Example 110, (1S,2S,5R)-1-hydroxy-N-(2-hydroxyethyl)-2-isopropyl-5-methylcyclohexane-1-carboxamide], the values for the EC50 in assay [2], in assay [3] and in assay [4] were 639 nM, 1640 nM and more than 10000 nM, respectively.
`CC(C)[C@@H]1CC[C@@H](C)C[C@@]1(O)C(=O)N[C@H](CCO)c1ccccc1` [Example 86, (1S,2S,5R)-1-hydroxy-N—((R)-3-hydroxy-1-phenylpropyl)-2-isopropyl-5-methylcyclohexane-1-carboxamide]: the EC50 in assay [2] is 749 nM; in assay [3], 547 nM; in assay [4] it was more than 10000 nM.
With `COC(=O)CCOc1ccccc1CCNC(=O)[C@]1(O)C[C@H](C)CC[C@H]1C(C)C` [Example 75, methyl 3-(2-(2-((1S,2S,5R)-1-hydroxy-2-isopropyl-5-methylcyclohexane-1-carboxamido)ethyl)phenoxy)propanoate], the EC50 in assay [2] was determined as 109 nM; in assay [3] it was 84 nM.
Taken in the same sequence, the figures for `COc1ccc(C(=O)CNC(=O)[C@]2(O)C[C@H](C)CC[C@H]2C(C)C)cc1` [Example 121, (1S,2S,5R)-1-hydroxy-2-isopropyl-N-[2-(4-methoxyphenyl)-2-oxo-ethyl]-5-methyl-cyclohexanecarboxamide] were 4.9 nM and 18.7 nM.
As to `CC(C)[C@@H]1CC[C@@H](C)C[C@@]1(O)C(=O)NCC(=O)OCc1ccccc1` [Example 132, benzyl 2-[[(1S,2S,5R)-1-hydroxy-2-isopropyl-5-methyl-cyclohexanecarbonyl]amino]acetate], the EC50 in assay [2] is 79.1 nM; in assay [3], 303 nM.
Taken in the same sequence, the figures for `CC(C)[C@@H]1CC[C@@H](C)C[C@@]1(O)C(=O)NCCc1cnccn1` [Example 131, (1S,2S,5R)-1-hydroxy-2-isopropyl-5-methyl-N-(2-pyrazin-2-ylethyl)cyclohexanecarboxamide] were 267 nM and 603 nM.
For `CC(C)[C@@H]1CC[C@@H](C)C[C@@]1(O)C(=O)NCc1c[nH]c2ccccc12` [Example 151] the same measures were 126 nM and 188 nM.
For `CC(C)[C@@H]1CC[C@@H](C)C[C@@]1(O)C(=O)NCC(=O)c1ccccc1Cl` [Example 140, (1S,2S,5R)-N-[2-(2-chlorophenyl)-2-oxo-ethyl]-1-hydroxy-2-isopropyl-5-methyl-cyclohexanecarboxamide] the same measures were 3.3 nM and 9.4 nM.
For the compound `COC[C@H](NC(=O)[C@]1(O)C[C@H](C)CC[C@H]1C(C)C)C(O)c1ccccc1` (stereo in doubt) [Example 122, (1S,2S,5R)-1-hydroxy-N-[(1S,2S)-2-hydroxy-1-(methoxymethyl)-2-phenyl-ethyl]-2-isopropyl-5-methyl-cyclohexanecarboxamide], the EC50 came to 749 nM in assay [2] and 7510 nM in assay [3].
Regarding `CC(C)[C@@H]1CC[C@@H](C)C[C@@]1(O)C(=O)NCC(O)(c1ccccc1)C(F)(F)F` (single isomer, unassigned) [Example 82], the concentration giving a half-maximal response (EC50) is 486 nM in assay [2] and 332 nM in assay [3].
As to `[2H]C(O)(CNC(=O)[C@]1(O)C[C@H](C)CC[C@H]1C(C)C)c1ccccc1` (single isomer, unassigned) [Example 92], the EC50 in assay [2] was 2.3 nM; in assay [3], 4.1 nM.
As for `COc1ccc2c(c1)OCC2CNC(=O)[C@]1(O)C[C@H](C)CC[C@H]1C(C)C` (stereo partly drawn) [Example 154, (1S,2S,5R)-1-hydroxy-2-isopropyl-N-[(6-methoxy-2,3-dihydrobenzofuran-3-yl)methyl]-5-methyl-cyclohexanecarboxamide], the EC50 in assay [2] stood at 46 nM; in assay [3] it was 85 nM.
As for `COC(=O)c1ccccc1CCNC(=O)[C@]1(O)C[C@H](C)CC[C@H]1C(C)C` [Example 106, methyl 2-(2-((1S,2S,5R)-1-hydroxy-2-isopropyl-5-methylcyclohexane-1-carboxamido)ethyl)benzoate], the EC50 in assay [2] is 23.2 nM; in assay [3] it was 29.3 nM; in assay [4], more than 10000 nM.
Turning to `CC(C)[C@@H]1CC[C@@H](C)C[C@@]1(O)C(=O)NCC(=O)c1ccc(F)cc1` [Example 135, (1S,2S,5R)-N-[2-(4-fluorophenyl)-2-oxo-ethyl]-1-hydroxy-2-isopropyl-5-methyl-cyclohexanecarboxamide], the values for the concentration giving a half-maximal response (EC50) in assay [2] and in assay [3] were 1.1 nM and 2.1 nM, respectively.
For `CC(C)[C@@H]1CC[C@@H](C)C[C@@]1(O)C(=O)NCC(=O)c1sccc1Cl` [Example 148, (1S,2S,5R)-N-[2-(3-chloro-2-thienyl)-2-oxo-ethyl]-1-hydroxy-2-isopropyl-5-methyl-cyclohexanecarboxamide] the same measures were 4 nM and 4 nM.
Regarding `COC(=O)CO[C@H](CNC(=O)[C@]1(O)C[C@H](C)CC[C@H]1C(C)C)c1ccccc1` [Example 57, methyl 2-((S)-2-((1S,2S,5R)-1-hydroxy-2-isopropyl-5-methylcyclohexane-1-carboxamido)-1-phenylethoxy)acetate], the values for the concentration for a half-maximal effect (EC50) in assay [2], in assay [3] and in assay [4] were 219 nM, 254 nM and more than 10000 nM, respectively.
For the compound `CC(C)[C@@H]1CC[C@@H](C)C[C@@]1(O)C(=O)NCc1cccc(O)c1` [Example 165, (1S,2S,5R)-1-hydroxy-N-[(3-hydroxyphenyl)methyl]-2-isopropyl-5-methyl-cyclohexanecarboxamide], the EC50 in assay [2] is 369 nM; in assay [3], 330 nM.
For `CC(C)[C@@H]1CC[C@@H](C)C[C@@]1(O)C(=O)N[C@H]1COc2ccccc2C1` [Example 95, (1S,2S,5R)—N-((3R)-chroman-3-yl)-1-hydroxy-2-isopropyl-5-methylcyclohexane-1-carboxamide] the same measures were 3.1 nM and 3.6 nM.
Taken in the same sequence, the figures for `CC(C)[C@@H]1CC[C@@H](C)C[C@@]1(O)C(=O)NCC1OCCc2ccccc21` (single isomer, unassigned) [Example 98] were 64.7 nM and 52.8 nM.
Regarding `CC(C)[C@@H]1CC[C@@H](C)C[C@@]1(O)C(=O)N[C@@H](CO)Cc1ccc(O)cc1` [Example 170, (1S,2S,5R)-1-hydroxy-N-[(1R)-1-(hydroxymethyl)-2-(4-hydroxyphenyl)ethyl]-2-isopropyl-5-methyl-cyclohexanecarboxamide], the EC50 in assay [2] stood at 60.3 nM; in assay [3], 37.1 nM.
